Source: PubChem BioAssay AID651857 (Broad Institute, 2012)
Values joined by “and” are separate entries in the source; they are usually repeats but may differ in a detail not shown here. Identical values can stand only once. Active and inactive are the calls of the source. The rule behind the calls is not given here.

System: M. tuberculosis starvation survival, CFU enumeration
Test: Mycobacterium tuberculosis starvation survival, colony forming units enumeration, confirmatory dose response (AID 651857)
Settings: not given

SMILES | IC90
Fc1ccc(Cn2cc(CSc3nnc(C4CCC4)o3)nn2)cc1 | 8 µM
c1ccc(-c2nnc(SCc3cscn3)o2)cc1 | 62 µM
c1ccc(CSc2nnc(-c3ccccc3)o2)cc1 | 8 µM
c1ccc(CSc2nnc(-c3cnco3)o2)cc1 | 16 µM
O=S(=O)(Cc1ccccc1)c1nnc(-c2ccccc2)o1 | < 62 µM and 8 µM
COc1ccc(CSc2nnc(-c3ccccc3)o2)cc1 | > 62 µM (inactive)
Fc1cccc(CSc2nnc(-c3ccccc3)o2)c1 | 31 µM
Fc1cccc(-c2nnc(SCc3ccccn3)o2)c1 | < 8 µM
c1ccc(COc2nnc(-c3ccccc3)o2)cc1 | > 62 µM (inactive)
c1ccc(CSc2nnc(-c3ccccn3)o2)cc1 | 31 µM
FC1(F)CN(CCSc2nnc(-c3ccccc3)o2)C1 | > 62 µM (inactive)
CN(Cc1ccccc1)c1nnc(-c2ccccc2)o1 | > 62 µM (inactive)
Clc1ccc(-c2nnc(SCc3cn(-c4ccccc4)nn3)o2)cc1 | 2 µM
COc1cccc(-c2nnc(SCc3ccccn3)o2)c1 | < 8 µM
c1ccc(-c2nnc(SCCN3CCN(c4ccccc4)CC3)o2)cc1 | 16 µM
c1ccc(CCc2nnc(-c3ccccc3)o2)cc1 | > 62 µM (inactive)
[N-]=[N+]=NCCOCCNC(=O)CCCOc1ccc(CSc2nnc(-c3ccc(Cl)cc3)o2)nc1 | < 8 µM
Fc1ccc(Cn2cc(CSc3nnc(C4CCCC4)o3)nn2)cc1 | 8 µM
Fc1ccc(-c2nnc(SCc3ccccc3)o2)cc1 | 31 µM
c1ccc(-c2nnc(SCCC3OCCCO3)o2)cc1 | 10 µM
c1ccc(Cn2cc(CSc3nnc(C4CCCC4)o3)nn2)cc1 | 31 µM
Fc1cccc(-c2nnc(SCc3ccccc3)o2)c1 | 62 µM
Fc1ccc(-c2nnc(SCc3ccccn3)o2)cc1 | < 8 µM
Brc1cccc(-c2nnc(SCc3ccccn3)o2)c1 | < 8 µM
c1ccc(Cn2cc(CSc3nnc(C4CCC4)o3)nn2)cc1 | 8 µM
COc1cccc(CSc2nnc(-c3ccccc3)o2)c1 | 16 µM
Cc1ccc(-c2nnc(SCc3ccccc3)o2)cc1 | > 62 µM (inactive)
c1ccc(-n2cc(CSc3nnc(C4CCCC4)o3)nn2)cc1 | 4 µM

SMILES | IC90
FC1(F)CCN(CCSc2nnc(-c3ccccc3)o2)CC1 | > 62 µM (inactive)
Clc1ccc(-c2nnc(SCc3cn(Cc4ccccc4)nn3)o2)cc1 | 2 µM and < 8 µM
FC(F)(F)Oc1ccc(CSc2nnc(-c3ccccc3)o2)cc1 | > 62 µM (inactive)
Clc1ccc(CSc2nnc(-c3ccccc3)o2)cc1 | 8 µM
Brc1ccc(-c2nnc(SCc3ccccn3)o2)cc1 | < 8 µM
Fc1ccc(Cn2cc(CSc3nnc(-c4ccc(F)cc4)o3)nn2)cc1 | 2 µM
O=S(Cc1cn(Cc2ccc(F)cc2)nn1)c1nnc(-c2ccc(Cl)cc2)o1 (stereo unspecified) | 2 µM
c1ccc(-c2nnc(SCc3ccccn3)o2)cc1 | 4 µM
c1ccc(-n2cc(CSc3nnc(C4CCC4)o3)nn2)cc1 | 2 µM
Fc1ccc(CSc2nnc(-c3ccccc3)o2)cc1 | 62 µM
Fc1ccc(-c2nnc(SCc3cn(Cc4ccccc4)nn3)o2)cc1 | 2 µM
CC(C)c1nnc(SCc2ccccc2)o1 | 125 µM
Fc1ccc(-c2nnc(SCc3cn(-c4ccccc4)nn3)o2)cc1 | 2 µM
O=S(Cc1cn(Cc2ccccc2)nn1)c1nnc(-c2ccc(Cl)cc2)o1 (stereo unspecified) | < 31 µM and 8 µM
N#Cc1ccccc1CSc1nnc(-c2ccccc2)o1 | > 62 µM (inactive)
[N-]=[N+]=NCCOCCNC(=O)CCCOc1ccc(CS(=O)c2nnc(-c3ccc(Cl)cc3)o2)nc1 (stereo unspecified) | < 8 µM
COc1ccc(CSc2nnc(-c3ccc(Cl)cc3)o2)nc1 | < 8 µM
FC(F)(F)c1ccccc1CSc1nnc(-c2ccccc2)o1 | > 62 µM (inactive)
[O-][n+]1ccccc1CSc1nnc(-c2ccccc2)o1 | > 62 µM (inactive)
c1ccc(CSc2nnc(C3CCCC3)o2)cc1 | 31 µM
c1ccc(CSc2nnc(-c3cccnc3)o2)cc1 | 62 µM
COCCSc1nnc(-c2ccccc2)o1 | 4 µM
c1ccc(CSc2nnc(-c3cccs3)o2)cc1 | > 62 µM (inactive)
c1ccc(Cn2cc(CSc3nnc(-c4ccccc4)o3)nn2)cc1 | 4 µM
c1ccc(-c2nnc(SC3CCCCC3)o2)cc1 | 31 µM
O=S(Cc1ccccc1)c1nnc(-c2ccccc2)o1 (stereo unspecified) | < 8 µM and 2 µM
Fc1ccc(Cn2cc(CSc3nnc(-c4ccc(Cl)cc4)o3)nn2)cc1 | 2 µM

System: not listed separately
Test: as above
Settings: M. tuberculosis starvation survival, CFU enumeration

SMILES | outcome
O=S(=O)(Cc1cn(Cc2ccccc2)nn1)c1nnc(-c2ccc(Cl)cc2)o1 | inactive
